According to patent US20230303604A1, “METALLIC TRANS-(N-HETEROCYCLIC CARBENE)-AMINE-PLATINUM COMPLEXES AND USES THEREOF FOR TREATING CANCER” (INSTITUT CURIE, priority 2020, published 2023):

Experiments:
Format in all cases: cell-based
[1] = tested on: cervical cancerous cell lines (IC5, CC11^+, CRL1550, CRL7920); experiment: Cell proliferation evaluation, statements over the cervical cancerous cell lines; settings: three cervical cancerous cell lines
Description: (§1) Cell culture. The A2780 ovarian carcinoma cell lines were purchased from ECACC (Salisbury, UK) and were grown in complete RPMI medium supplemented with 10% fetal calf serum, in the presence of penicillin, streptomycin. The resistance of A2780/DDP cells to cisplatin was maintained by monthly treatment with 1 μM cisplatin for 4 days. H1299 Non Small Cell Lung Carcinoma (ATCC® CRL-5803™) and were grown in RPMI medium supplemented with 10% fetal calf serum, 1% HEPES, 1% Sodium Pyruvate in the presence of penicillin and streptomycin. In addition, four cervical cancerous cell lines, already resistant to some conventional chemotherapy (Gemcitabin, methothrexate, vinorelbin and/or cisplatin) were chosen: IC5 (from Institut Curie), CRL1550 (ATCC® CRL1550™), CC11^+ (Cellosaurus CVCL_DF82) and CRL7920 (ATCC® CRL7920™). They were grown in complete RPMI medium supplemented with 10% fetal calf serum, in the presence of penicillin, streptomycin.
(§2) Cell proliferation evaluation. Cells were treated with various concentrations of NHC-Pt, at 37° C. under humidity and 5% CO2 conditions for 96 h. Cellular growth was quantified using the Moxi Z Mini automated cell counter (Orflox technology). CellTiter Glo® Luminescent Cell Viability Assay following the kit instructions (Promega) was also used. […]

A2780 cell lines = experiment: Radiosensitization assay on A2780; settings: A2780, 1 μM complex, 1 day pretreatment, D10 six days post-irradiation
Description: (§3) For one day or 10 min pretreatment, cells were seeded at a number allowing 5 doubling populations growth without reaching confluence in the untreated samples. They were then pretreated during the time indicated at the indicated NHC-Pt concentrations, irradiated at 1, 2, 3 and 4 Gy for A2780 cell lines and 2. 4. 6 and 8 Gy for H1299 and allow growing until 6 days. IC5 cells were irradiated at 1, 2, 3, 4 and 5 Gy, CC11^+ were irradiated at 2, 3, 4, 5 and 6 Gy and allow growing until 7 days, CRL1550 were irradiated at 2, 4, 6 and 8 Gy and allow growing until 5 days. CRL79200 were irradiated at 1, 2, 3 and 4 Gy and allow growing until 15 days. For 4 days pretreatment, cells were seeding in the conditions of cell cytotoxicity determination, trypsinised, seeded at a number allowing 5 doubling population growth without reaching confluence in the untreated samples and treated one day before irradiation. Irradiation is using GSR D1 irradiator (gamma-ray, 662 keV). The cells were left to grow for 6 days to allow at least 5 population doublings. Cell count of each well is taken and a graph is plotted with the percentage survival of each treatment of cells with its control (0 Gy). […]
(§4) All the complexes were first evaluated for their radiosensitizing properties on A2780 and H1299 cell lines. […] The D10 doses were evaluated as the doses allowing 10% survival six days post-irradiation. […]

[2] = tested on: A2780cis (A2780/DDP) cells; experiment: Cell proliferation evaluation on cisplatin-resistant A2780cis; settings: for ability to counteract the cisplatin resistance: A780cis cell line
Description: as §1
Cell proliferation evaluation. Cells were treated with various concentrations of NHC-Pt, at 37° C. under humidity and 5% CO2 conditions for 96 h. Cellular growth was quantified using the Moxi Z Mini automated cell counter (Orflox technology). CellTiter Glo® Luminescent Cell Viability Assay following the kit instructions (Promega) was also used. But since doses that inhibit 50% of cell proliferation (IC50) not always correlated to the number of cells, as previously observed (Uehara, T., Mitsuhashi, A., Tsuruoka, N., and Shozu, M. (2015) Metformin potentiates the anticancer effects of cisplatin under normoxic conditions in vitro, Oncology reports 33, 744-750), cell counting was privileged. […]

A2780 cells = experiment: Immunofluorescence assay, DNA damage repair kinetics (γ-H2AX and 53BP1 foci); settings: A2780, 2 Gy, 2 h and 6 h post irradiation, 1 day pre-treatment
Description: Immunofluorescence Assays. A2780 cells were plated on coverslips in 6-well plates. After 1 day of incubation with the various NHC-Pt at their RS doses, cells were irradiated at 2 Gys, incubated the time indicated post-irradiation, washed with phosphate-buffered saline (PBS), then fixed 10 minutes in 4% formaldehyde. After a wash with PBS, cells were permeabilised 2 min using 0.5% Triton X-100 and is washed with PBS. The cells were incubated in blocking buffer (5% bovine serum albumin in PBS) for 30 min before being incubated for 1 h with the primary mouse monoclonal antibody against g-H2AX (milipore) or 53BP1. After three washes with PBS, the cells were incubated for an additional 1 h with the Alexa Fluor 488-conjugated secondary antibody (Alexa Fluor 488 goat anti-mouse IgG; Life Technologies). Nuclei were labeled using DAPI and the coverslides were mounted with Vectashield™. Acquisitions were performed on a3D-dev or 3D-SIM in the microscopy platform from Institut Curie. ImageJ software ([…]) was used to project the z-stacks and count the number of g-H2AX or 53BP1 spots as well as their intensity and size in nuclei. […]
The inventors analyzed, by immunofluorescence, the γ-H2AX and 53BP1 foci, γ-H2AX being a DNA damage sensor and 53BP1 being a DNA repair sensor at different time post-irradiation (0.5-24 h).

H1299 cell lines = experiment: Radiosensitization assay on H1299; settings: H1299, 1 μM complex, 1 day pretreatment, D10 six days post-irradiation
Description: as §3, §4

[3] = tested on: CRL1550 cervical cancerous cell line; experiment: Cell proliferation evaluation on CRL1550; settings: CRL1550, 4 days treatment
Description: as §1, §2

[4] = tested on: A2780 ovarian carcinoma cell lines; experiment: Cell proliferation evaluation (cell counting) on A2780; settings: A2780, 4 days (96 h) treatment
Description: as §1, §2

[5] = tested on: CC11^+ cervical cancerous cell line; experiment: Cell proliferation evaluation on CC11+; settings: 4 days treatment
Description: as §1, §2

[6] = tested on: IC5 cervical cancerous cell line; experiment: Cell proliferation evaluation on IC5; settings: IC5, 4 days treatment
Description: as §1, §2

| SMILES | cytotoxic activity as compared to C2 [1] | radiosensitizing properties at 1 μM (A2780 cell lines) | ability to counteract the cisplatin resistance [2] | radiosensitizing properties at 1 μM (H1299 cell lines) | other results |
| --- | --- | --- | --- | --- | --- |
| CN1C=CN(CCCCCCN2C=CN(C)[CH]2[Pt]([I])([I])[N]2CCOCC2)[CH]1[Pt]([I])([I])[N]1CCOCC1 (stereo not drawn) [C7, [1,1′-(hexane-1,6-diyl)bis(3-methylimidazol-2-ylidene)]bis[trans-diiodo(N-morpholine)platinum]] | improved cytotoxic activity | – | – | – | – |
| OCCN1C=CN(CCCCCCN2C=CN(CCO)[CH]2[Pt]([I])([I])[NH]C2CCCCC2)[CH]1[Pt]([I])([I])[NH]C1CCCCC1 (stereo not drawn) [C9, {1,1′-(hexane-1,6-diyl)bis[3-(2-hydroxethyl)imidazol-2-ylidene]}bis{[trans-diiodo(N-cyclohexylamine)platinum]}] | improved cytotoxic activity | – | – | – | – |
| CN1C=CN(CCCCCCN2C=CN(C)[CH]2[Pt]([NH2])([I])[I])[CH]1[Pt]([NH2])([I])[I] (stereo not drawn) [C2, [1,1′-(hexane-1,6-diyl)bis(3-methylimidazol-2-ylidene)]bis[trans-diiodo(ammonia)platinum]] | – | significant radiosensitizing properties | able to counteract the cisplatin resistance | significant radiosensitizing properties | DNA damage repair after irradiation (γ-H2AX foci) (A2780 cells): induced a delay in the DNA damage repair |
| N.N.[Cl][Pt][Cl] [Cisplatin, cisplatin] | – | – | – | – | IC50 [3]: 390 ± 40 nM; IC50 [4]: 300 nM; IC50 ([2]; cisplatin-resistant cell line, 96 h, read-out: IC50 in A780cis cell line): 6000 nM; IC50 [5]: 6 nM; IC50 [6]: 490 ± 50 nM |
| CN1C=CN(C)[CH]1[Pt]([NH2])([I])[I] [MS113, trans-Diiodo(ammonia)(1,3-dimethylimidazol-2-ylidene)platinum] | – | – | it is not the case | – | – |
| CN1C=CN(C)[CH]1[Pt]([I])([I])[NH]C1CCCCC1 [MS140, trans-Diiodo(N-cyclohexylamine)(1,3-dimethylimidazol-2-ylidene)platinum] | – | significant radiosensitizing properties | – | significant radiosensitizing properties | – |
